The target in test [1] is T1, Adenosine kinase (Rattus norvegicus, UniProt Q64640). The test is described as follows: Inhibitory activity against intact cell adenosine kinase by ADO phosphorylation assay.
The target in test [2] is T1, Adenosine kinase. The test is described as follows: Inhibitory activity against cytosolic adenosine kinase by ADO phosphorylation assay.
In test [3] the test system is Rattus norvegicus. Nature of the test: Tested for analgesic activity in vivo rat formalin nociception assay, administered by intraperitoneal injection to six animals at each dose. p<0.05. It counts as functional. The conditions noted are these: ip.
Test [4] deals with Rattus norvegicus. Nature of the test: Tested for analgesic activity in vivo rat carrageenan hyperalgesia assay, administered by intraperitoneal injection to six animals at each dose. p<0.05. The conditions noted are these: ip. It counts as functional.

T1 sequence (Q64640 whole entry): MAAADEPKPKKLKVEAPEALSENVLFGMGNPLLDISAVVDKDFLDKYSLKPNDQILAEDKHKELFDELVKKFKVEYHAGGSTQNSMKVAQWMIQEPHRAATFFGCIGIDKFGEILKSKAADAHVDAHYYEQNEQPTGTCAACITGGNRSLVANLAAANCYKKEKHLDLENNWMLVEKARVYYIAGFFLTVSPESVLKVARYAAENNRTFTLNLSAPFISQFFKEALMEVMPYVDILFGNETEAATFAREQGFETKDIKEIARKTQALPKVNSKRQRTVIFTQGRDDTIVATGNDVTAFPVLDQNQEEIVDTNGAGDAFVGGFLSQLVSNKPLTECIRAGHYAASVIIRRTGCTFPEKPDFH

For orientation: IC50 means the midpoint of a concentration-inhibition curve. Read a high IC50 as weaker potency. For the compound `CN(C)c1ccc(-c2cc(-c3cccc(C(F)(F)F)c3)c3c(N)ncnc3n2)cc1`, the IC50 against Adenosine kinase [1] stood at 225 nM; against Adenosine kinase [2], 36 nM.
In general, ED50 refers to the dose that gives a 50% effect, or the effect in half of the subjects. Read a low ED50 as an effect at a small dose. Consider `CC(c1ccccc1Br)c1cc(-c2ccc(N3CCOCC3)nc2)nc2ncnc(N)c12` (stereo not drawn), for which the figures for the IC50 at Adenosine kinase [1] and against Adenosine kinase [2] were 30 nM and 0.25 nM, respectively. The 50% effective dose (ED50) in the test on Rattus norvegicus [3] and in the test with Rattus norvegicus [4] was 10 µmol/kg throughout.
As for `CCC(CC)c1cc(-c2ccc(N3CCOCC3)nc2)nc2ncnc(N)c12`, the IC50 on Adenosine kinase [1] stood at 115 nM; at Adenosine kinase [2], 9 nM. In the test with Rattus norvegicus [4], the ED50 came out at 30 µmol/kg.
For the compound `Nc1ncnc2nc(-c3ccc(N4CCOCC4)nc3)cc(C3CCOCC3)c12`, the IC50 at Adenosine kinase [1] came to 800 nM; on Adenosine kinase [2], 17 nM. Also, the results for the ED50 with Rattus norvegicus [3] and with Rattus norvegicus [4] were 30 µmol/kg and greater than 2 µmol/kg, respectively.
`Cc1cc(-c2ccc(N(C)C)cc2)nc2ncnc(N)c12`: the results for the IC50 against Adenosine kinase [1] and at Adenosine kinase [2] were greater than 1000 nM and 47 nM, respectively.
The matching figures for `C=CC(C)(C)c1cc(-c2ccc(N3CCOCC3)nc2)nc2ncnc(N)c12`: 304 nM and 21 nM.
For `CC1CC(C)CC(c2cc(-c3ccc(N4CCOCC4)nc3)nc3ncnc(N)c23)C1` (stereo not drawn), the IC50 at Adenosine kinase [1] came out at 102 nM; on Adenosine kinase [2], 0.23 nM. The ED50 was greater than 30 µmol/kg in the test on Rattus norvegicus [3] and 30 µmol/kg in the test with Rattus norvegicus [4].
Taken in the same sequence, the figures for `Nc1ncnc2nc(-c3ccc(N4CCOCC4)nc3)cc(Cc3ccccc3Br)c12` were 33 nM, 0.17 nM, 30 µmol/kg and 3 µmol/kg.
Turning to `COc1cccc(-c2cc(-c3ccc(N(C)C)cc3)nc3ncnc(N)c23)c1`, the IC50 was 400 nM against Adenosine kinase [1] and 85 nM on Adenosine kinase [2].
`Nc1ncnc2nc(-c3ccc(N4CCOCC4)nc3)cc(-c3ccc(Br)cc3)c12`: the IC50 on Adenosine kinase [1] came to 430 nM; against Adenosine kinase [2], 30 nM. The ED50 with Rattus norvegicus [3] stood at 30 µmol/kg.
With `CCCCc1cc(-c2ccc(N(C)C)cc2)nc2ncnc(N)c12`, the IC50 against Adenosine kinase [1] came out at 550 nM; at Adenosine kinase [2] it was 11 nM.
Taken in the same sequence, the figures for `CN(C)c1ccc(-c2cc(C3CC3)c3c(N)ncnc3n2)cc1` were 825 nM and 55 nM.
As to `Nc1ncnc2nc(-c3ccc(N4CCOCC4)nc3)cc(-c3cccnc3)c12`, the IC50 against Adenosine kinase [1] came to 315 nM; against Adenosine kinase [2], 62 nM. Besides, the ED50 in the test on Rattus norvegicus [4] was greater than 30 µmol/kg.
As to `CN(C)c1ccc(-c2cc(-c3cccc(Cl)c3)c3c(N)ncnc3n2)cc1`, the IC50 turned out to be 78 nM against Adenosine kinase [1] and 15 nM against Adenosine kinase [2].
The matching figures for `CN(C)c1ccc(-c2cc(-c3cccc(C(N)=O)c3)c3c(N)ncnc3n2)cc1`: 850 nM and 77 nM.
The matching figures for `Nc1ncnc2nc(-c3ccc(N4CCOCC4)nc3)ccc12`: greater than 1000 nM and 562 nM.
The matching figures for `CN(C)c1ccc(-c2cc(-c3cccc(C#N)c3)c3c(N)ncnc3n2)cc1`: 325 nM and 35 nM.
In the case of `CN(C)c1ccc(-c2cc(C3CCCCC3)c3c(N)ncnc3n2)cc1`, the IC50 came to 470 nM on Adenosine kinase [1] and 8 nM against Adenosine kinase [2].
The matching figures for `CN(C)c1ccc(-c2ccc3c(N)ncnc3n2)cc1`: greater than 10000 nM and 733 nM.
Taken in the same sequence, the figures for `Nc1ncnc2nc(-c3ccc(N4CCOCC4)nc3)cc(-c3cc(Cl)ccc3Cl)c12` were 378 nM and 38 nM.
As for `CN(C)c1ccc(-c2cc(-c3cccc(I)c3)c3c(N)ncnc3n2)cc1`, the IC50 on Adenosine kinase [1] was determined as 120 nM; at Adenosine kinase [2], 17 nM.
For `Nc1ncnc2nc(-c3ccc(N4CCOCC4)nc3)cc(-c3cccc(Cl)c3Cl)c12`, the results for the IC50 against Adenosine kinase [1] and against Adenosine kinase [2] were 130 nM and 5 nM, respectively. The compound further came in with an ED50 in the test on Rattus norvegicus [4] of 5 µmol/kg.
Turning to `Nc1ncnc2nc(-c3ccc(N4CCOCC4)nc3)cc(C3CCCCC3)c12`, the IC50 on Adenosine kinase [1] was determined as 57 nM; at Adenosine kinase [2], 3 nM. The ED50 came to 20 µmol/kg with Rattus norvegicus [3] and 10 µmol/kg in the test on Rattus norvegicus [4].
Turning to `Nc1ncnc2nc(-c3ccc(N4CCOCC4)nc3)cc(-c3ccco3)c12`, the IC50 on Adenosine kinase [1] was 488 nM; against Adenosine kinase [2], 10 nM.
As to `Nc1ncnc2nc(-c3ccc(N4CCOCC4)nc3)cc(-c3ccsc3)c12`, the IC50 at Adenosine kinase [1] is 550 nM; on Adenosine kinase [2] it was 13 nM.
For the compound `Nc1ncnc2nc(-c3ccc(N4CCOCC4)nc3)cc(C3CCCC3)c12`, the concentration for half-maximal inhibition (IC50) on Adenosine kinase [1] stood at 80 nM; on Adenosine kinase [2] it was 2 nM. The same compound yielded an ED50 with Rattus norvegicus [4] of 10 µmol/kg.
Regarding `Nc1ncnc2nc(-c3ccc(N4CCOCC4)nc3)cc(-c3ccccc3Br)c12`, the IC50 against Adenosine kinase [1] came to 675 nM; at Adenosine kinase [2], 3 nM. The values for the ED50 in the test with Rattus norvegicus [3] and in the test with Rattus norvegicus [4] were 10 µmol/kg and 30 µmol/kg, respectively.
As for `Nc1ncnc2nc(-c3ccc(N4CCOCC4)nc3)cc(-c3cccc(Cl)c3)c12`, the IC50 at Adenosine kinase [1] came out at 96 nM; at Adenosine kinase [2] it was 9 nM. In addition, the values for the ED50 in the test with Rattus norvegicus [3] and in the test on Rattus norvegicus [4] were 10 µmol/kg and 20 µmol/kg, respectively.
As for `CN(C)c1ccc(-c2cc(-c3cccc(O)c3)c3c(N)ncnc3n2)cc1`, the IC50 on Adenosine kinase [1] stood at 353 nM; at Adenosine kinase [2], 44 nM.
Turning to `Nc1ncnc2nc(-c3ccc(N4CCOCC4)nc3)cc(-c3cccc(Br)c3)c12`, the IC50 turned out to be 50 nM against Adenosine kinase [1] and 2 nM on Adenosine kinase [2]. Besides, the values for the ED50 in the test with Rattus norvegicus [3] and with Rattus norvegicus [4] were 25 µmol/kg and 0.6 µmol/kg, respectively.
As for `CN(C)c1ccc(-c2cnc3c(N)ncnc3n2)cc1`, the IC50 at Adenosine kinase [2] worked out at 400 nM.
Regarding `CN(C)c1ccc(-c2cc(-c3ccccc3)c3c(N)ncnc3n2)cc1`, the IC50 was 470 nM against Adenosine kinase [1] and 7 nM against Adenosine kinase [2].
Regarding `CN(C)c1ccc(-c2cc(-c3cccc(Br)c3)c3c(N)ncnc3n2)cc1`, the IC50 against Adenosine kinase [1] is 170 nM; against Adenosine kinase [2] it was 5 nM. In addition, the ED50 in the test on Rattus norvegicus [3] turned out to be 0.7 µmol/kg; in the test with Rattus norvegicus [4], 30 µmol/kg.

(Values after ChEMBL document CHEMBL1134053, “Structure-activity studies of 5-substituted pyridopyrimidines as adenosine kinase inhibitors” (Bioorg Med Chem Lett, 2001).)
